Test results: PMC11279727, “Bioprospecting, Synergistic Antifungal and Toxicological Aspects of the Hydroxychalcones and Their Association with Azole Derivates against Candida spp. for Treating Vulvovaginal Candidiasis” (Pharmaceutics, 2024)
Values after ≈ are worked out from the molar mass of the structure shown.

Assays:
[1] = tested on: Candida albicans ATCC 90028; experiment: In vitro susceptibility, CLSI M27-A3 broth microdilution (MIC/MFC); type: cell-based; settings: for MFC / MIC50: ATCC90028, C. albicans ATCC 90028; for MIC: ATCC90028, C. albicans ATCC 90028, 37 °C 24 h
Experimental: (§1) Susceptibility tests were performed according to the M27-A3 protocol proposed by the Clinical & Laboratory Standards Institute (CLSI) (2008). Briefly, 2-HC and 3′-HC were solubilized in dimethyl sulfoxide at 12.500 g/L and stored at −80 °C. […] The final concentration of 2-HC and 3′-HC in the RPMI medium was 0.24–125.0 mg/L. Dilutions of the compounds were performed in a 96-well microplate at a total volume of 100 μL/well. Fungal suspensions were prepared in 0.85% NaCl and were adjusted to a final concentration of 5 × 10^3 cells/mL. Then, 100 μL of the fungal suspension was added to all wells. Microplates were incubated at 37 °C for 24 h. […] Minimal inhibitory concentration (MIC) was considered the lowest concentration of the drug that inhibited the visible growth of yeast. […] Samples were processed in triplicate, and each experiment was carried out in triplicate.

[2] = tested on: Candida glabrata ATCC 90030; experiment: as above; type: cell-based; settings: Nakaseomyces glabratus, ATCC90030; for MFC: C. glabrata ATCC 90030; for MIC: C. glabrata ATCC 90030, 37 °C 24 h
Experimental: as §1

Candida krusei ATCC 6258 [3] = experiment: as above; type: cell-based; settings: Pichia kudriavzevii, ATCC6258; for MFC / MIC50: C. krusei ATCC 6258; for MIC: C. krusei ATCC 6258, 37 °C 24 h
Experimental: as §1

[4] = tested on: Candida parapsilosis ATCC 22019; experiment: as above; type: cell-based; settings: Lodderomyces parapsilosis, ATCC22019; for MFC: C. parapsilosis ATCC 22019; for MIC: C. parapsilosis ATCC 22019, 37 °C 24 h
Experimental: as §1

[5] = tested on: Candida tropicalis ATCC 750; experiment: as above; type: cell-based; settings: for MFC / MIC50: ATCC750, C. tropicalis ATCC 750; for MIC: ATCC750, C. tropicalis ATCC 750, 37 °C 24 h
Experimental: as §1

[6] = In vitro cytotoxicity (resazurin, 72 h); settings: human
Experimental: (§2) Cytotoxicity assays were performed on the C33A cell line (uterine cervical carcinoma epithelium) obtained from the ATCC (Manassas, VA, USA). 5 × 10^4 cells/well were added using RPMI medium with 10% fetal bovine serum into 96-well plates. Cells were incubated at 36.5 °C with 5% CO2 for 24 h to form a cell monolayer. 2-HC and 3′-HC were analyzed in range concentrations from 0.1–75 μg/mL. In combinations, 2-HC and 3′-HC were analyzed from 0.48–31.25 mg/L and 0.48–62.5 mg/L. Cells were exposed for 72 h, and after, cytotoxicity was assessed by adding 100 μL of resazurin (50 μM) and measured by a microplate reader at 570 nm–600 nm. A negative control with untreated cells (100% living cells) and a positive control (DMSO 40% to induce cell death) were also used. The results were evaluated in triplicate independent. […] Selective index (SI) was calculated using SI=IC50/MIC50 .

[7] = tested on: C33A cell line (uterine cervical carcinoma epithelium); experiment: In vitro cytotoxicity (resazurin, 72 h); settings: Homo sapiens, C-33-A, 72 h
Experimental: as §2

[8] = tested on: Candida albicans ATCC 90028; experiment: Combinatorial antifungal activity (checkerboard); type: cell-based; settings: ATCC90028, C. albicans, drug alone in checkerboard, read-out: MIC80 (individual)
Excerpt: (§3) Candida albicans ATCC 90028, Candida tropicalis ATCC 750, and Candida krusei ATCC 6258 were used. These species were selected for these assays because C. albicans is the most prevalent etiological agent in fungal infections caused by the genus Candida, and C. tropicalis is the most frequent non-albicans species. C. krusei was used to represent the species most resistant to azole drugs. Thus, 2-HC and 3′-HC were combined with FCZ and CTZ and associated with each other. Their combinatorial antifungal activity was determined through the checkerboard method using 96-well microplates, according to Bellio et al. (2021). […] Microplates were incubated at 37 °C for 24 h. […] The negative control was only the culture medium, and the positive control was composed of microorganisms and the culture medium. […] From this, it was calculated the fractional inhibitory concentration (FIC) and the fractional inhibitory concentration index (FICI) of each well of the interface as follows: […]

Candida krusei ATCC 6258 [9] = experiment: Combinatorial antifungal activity (checkerboard); type: cell-based; settings: Pichia kudriavzevii, ATCC6258; C. krusei, drug alone in checkerboard; read-out: MIC80 (individual)
Excerpt: as §3

[10] = tested on: Candida tropicalis ATCC 750; experiment: Combinatorial antifungal activity (checkerboard); type: cell-based; settings: drug alone in checkerboard; for MIC80 (individual): C. tropicalis; for MIC80: Candida tropicalis, ATCC750, C. tropicalis, read-out: MIC80 (individual)
Excerpt: as §3

C. albicans ATCC 90028 = experiment: Therapeutic efficacy in Galleria mellonella infected with C. albicans; type: in vivo; settings: for efficacy in the antifungal activity: substances alone at MIC values and LCs, infected larvae
[11] = tested on: Mycobacterium tuberculosis; parameters: method as in PMID 34790584; settings: cited from earlier work
[12] = tested on: Paracoccidioides brasiliensis; parameters: method as in PMID 34790584; settings: cited from earlier work
[13] = tested on: Mycobacterium tuberculosis and Paracoccidioides brasiliensis mixed biofilm; parameters: method as in PMID 34790584; settings: cited from earlier work
C33A cell line = settings: in the concentration ranges tested in the combinations
Experimental: as §2

Compound	MFC [1]	MIC50 [1]	MIC [1]	MFC [2]	MIC [2]	MFC (Candida krusei ATCC 6258 [3])	MIC50 (Candida krusei ATCC 6258 [3])	MIC (Candida krusei ATCC 6258 [3])	MFC [4]	MIC [4]	MFC [5]	MIC50 [5]	MIC [5]	viability at 72 h, 9.38 mg/L [6]	IC50 [7]	MIC80 [8]	MIC80 (Candida krusei ATCC 6258 [9])	MIC80 (individual) [10]	MIC80 [10]	efficacy in the antifungal activity (C. albicans ATCC 90028)	other results
O=C(/C=C/c1ccccc1O)c1ccccc1 [2-HC, 2-hydroxychalcone]	> 125 µg/mL	15.6 µg/mL (≈ 69.7 µM)	31.3 µg/mL (≈ 140 µM)	> 125 µg/mL	15.6 µg/mL (≈ 69.6 µM)	125 µg/mL (≈ 557 µM)	15.6 µg/mL (≈ 69.7 µM)	7.8 µg/mL (≈ 34.8 µM)	15.6 µg/mL (≈ 69.6 µM)	7.8 µg/mL (≈ 34.8 µM)	> 125 µg/mL	7.81 µg/mL (≈ 34.8 µM)	31.3 µg/mL (≈ 140 µM)	> 80%	13 µg/mL	31.2 µg/mL	31.2 µg/mL	31.25 µg/mL	62.5 µg/mL	did not demonstrate efficacy	–
O=C(/C=C/c1ccccc1)c1cccc(O)c1 [3′-HC, 3′-hydroxychalcone]	> 125 µg/mL	15.6 µg/mL (≈ 69.7 µM)	31.3 µg/mL (≈ 140 µM)	31.3 µg/mL (≈ 140 µM)	7.8 µg/mL (≈ 34.8 µM)	31.3 µg/mL (≈ 140 µM)	7.81 µg/mL (≈ 34.8 µM)	7.8 µg/mL (≈ 34.8 µM)	31.3 µg/mL (≈ 140 µM)	15.6 µg/mL (≈ 69.6 µM)	125 µg/mL (≈ 557 µM)	7.81 µg/mL (≈ 34.8 µM)	31.3 µg/mL (≈ 140 µM)	> 80%	11.9 µg/mL	31.2 µg/mL	15.6 µg/mL	31.25 µg/mL	62.5 µg/mL	did not demonstrate efficacy	MIC [11]: 7.8 µg/mL (≈ 34.8 µM); MIC [12]: 0.97 µg/mL (≈ 4.33 µM); biofilm degradation [13]: above 50%
C[C@@H]1[C@H](O)[C@@H](C)/C=C/C=C/C=C/C=C/C=C/C=C/C=C/[C@H](O[C@@H]2O[C@H](C)[C@@H](O)[C@H](N)[C@@H]2O)C[C@@H]2O[C@](O)(C[C@@H](O)C[C@@H](O)[C@H](O)CC[C@@H](O)C[C@@H](O)CC(=O)O[C@H]1C)C[C@H](O)[C@H]2C(=O)O [AMB, amphotericin B, reference compound]	1 µg/mL (≈ 1.08 µM)	–	0.2 µg/mL (≈ 0.216 µM)	0.5 µg/mL (≈ 0.541 µM)	0.4 µg/mL (≈ 0.433 µM)	1 µg/mL (≈ 1.08 µM)	–	0.1 µg/mL (≈ 0.108 µM)	0.3 µg/mL (≈ 0.325 µM)	0.1 µg/mL (≈ 0.108 µM)	1 µg/mL (≈ 1.08 µM)	–	0.05 µg/mL (≈ 0.0541 µM)	–	–	–	–	–	–	–	–
Clc1ccccc1C(c1ccccc1)(c1ccccc1)n1ccnc1 [CTZ, clotrimazole, reference compound]	> 4 µg/mL	–	0.01 µg/mL (≈ 0.029 µM)	> 2 µg/mL	0.004 µg/mL (≈ 0.0116 µM)	> 4 µg/mL	–	0.06 µg/mL (≈ 0.174 µM)	0.1 µg/mL (≈ 0.29 µM)	0.03 µg/mL (≈ 0.087 µM)	> 4 µg/mL	–	0.01 µg/mL (≈ 0.029 µM)	–	–	0.03 µg/mL	0.13 µg/mL	–	0.03 µg/mL	–	cytotoxicity (C33A cell line): did not present cytotoxicity
OC(Cn1cncn1)(Cn1cncn1)c1ccc(F)cc1F [FCZ, Fluconazole, reference compound]	> 64 µg/mL	–	0.25 µg/mL (≈ 0.816 µM)	> 64 µg/mL	0.5 µg/mL (≈ 1.63 µM)	128 µg/mL (≈ 418 µM)	–	32 µg/mL (≈ 104 µM)	2 µg/mL (≈ 6.53 µM)	1 µg/mL (≈ 3.27 µM)	> 64 µg/mL	–	0.5 µg/mL (≈ 1.63 µM)	–	–	0.5 µg/mL	32 µg/mL	–	0.5 µg/mL	–	cytotoxicity (C33A cell line): did not present cytotoxicity; health indexes vs infection control group (C. albicans ATCC 90028; larvae infected with C. albicans ATCC 90028, all doses, FCZ 350 mg/L): statistically different from the infection control group; survival curves vs infection control group (C. albicans ATCC 90028; larvae infected with C. albicans ATCC 90028, treated 1 h after infection, five days, FCZ 350 mg/L): statistically different from the infection control group
